Laboratory results published in US12605347B2, “Solid dispersion of ursolic acid and potassium salt” (Indena S.P.A., priority 2019, dated 2026).
Where a name gives a salt, the structure may show the parent alone. Read-outs that look alike come from different tables or passages of the source.

What was measured:
physchem = conditions: 25 °C, thermodynamic from solid
Method: (§1) Analysis of the solid dispersions and the measure of the solubility in simulated gastrointestinal fluids were performed by HPLC with the instrument and conditions reported below.
(§2) Stirring was stopped and any undissolved solid was let to decant. The supernatant was filtered through a hydrophilic 0.2 μm PTFA filter and analyzed for the content of ursolic acid.
(§3) The same procedure as Test 1 was followed, using 100 mg of ursolic acid instead of the dispersion of example 1.
(§4) The same procedure as Test 1 was followed, using 100 mg ursolic acid potassium salt instead of the dispersion of example 1.

[1] = Dissolution test: solubility in simulated gastrointestinal fluids, ursolic acid in the supernatant by HPLC; conditions: FaSSGF pH = 1.6; stirred 2 hours at 25° C., supernatant filtered 0.2 μm
Method: as §1, §2, §3, §4

[2] = low solubility-low permeability; cited from earlier work

solubility thermodynamic at 2 h (physchem; FaSSIF (simulated gastrointestinal fluid), pH 6.5, fassif) | solubility thermodynamic at 2 h (physchem; FeSSIF (simulated gastrointestinal fluid), pH 5, fessif) | Ursolic acid in solution [1] | Ursolic acid in solution (pH 1.6) | Ursolic acid in solution (pH 5) | Ursolic acid in solution (pH 6.5) | Compound | class according to the biopharmaceutical classification system (BCS) [2]
154 µg/mL | 318 µg/mL | <LOD* |  |  |  | C[C@H]1[C@H](C)CC[C@]2(C(=O)O)CC[C@]3(C)C(=CC[C@@H]4[C@@]5(C)CC[C@H](O)C(C)(C)[C@@H]5CC[C@]43C)[C@H]12 [ursolic acid potassium salt] | 
 |  |  | <LOD* | 0.083 mg/mL | 0.032 mg/mL | 3β-hydroxy-urs-12-en-28-oic acid [ursolic acid] | class IV
